Laboratory results as given in ChEMBL document CHEMBL1126379, “Pyrrole analogues of the pyrrolidinone moiety of the potassium channel activator cromakalim as relaxants of guinea pig trachealis” (Bioorg Med Chem Lett, 1992).

Key:
Cavia porcellus [1] = species: Cavia porcellus; assay: Relaxant activity expressed as in vitro inhibition of tone in guinea pig trachealis; type: functional
Cavia porcellus [2] = species: Cavia porcellus; assay: Inhibition of tone in guinea pig trachealis; type: functional

Compound: CC1(C)C=C(n2ccc(C#N)c2)c2cc(C#N)ccc2O1
- IC50 (Cavia porcellus [1]): 2400 nM
- Intrinsic activity (Cavia porcellus [2]): 0.89

Compound: CC1OC2=C(c3cc(C#N)ccc3OC2(C)C)n2cccc21 (stereo not drawn)
- IC50 (Cavia porcellus [1]): 1370 nM
- Intrinsic activity (Cavia porcellus [2]): 0.8

Compound: CC1(C)C=C(n2ccc([N+](=O)[O-])c2)c2cc(C#N)ccc2O1
- IC50 (Cavia porcellus [1]): 1020 nM
- Intrinsic activity (Cavia porcellus [2]): 0.79

Compound: CC(=O)c1cccn1C1=CC(C)(C)Oc2ccc(C#N)cc21
- IC50 (Cavia porcellus [1]): > 20000 nM
- Intrinsic activity (Cavia porcellus [2]): 0.22

Compound: CC1(C)Oc2ccc(C#N)cc2[C@@H](n2cccc2[N+](=O)[O-])[C@@H]1O
- IC50 (Cavia porcellus [1]): 370 nM
- Intrinsic activity (Cavia porcellus [2]): 0.88

Compound: CCc1cccn1C1=CC(C)(C)Oc2ccc(C#N)cc21
- IC50 (Cavia porcellus [1]): > 20000 nM
- Intrinsic activity (Cavia porcellus [2]): 0.32

Compound: CC1(C)C=C(n2cccc2)c2cc(C#N)ccc2O1
- IC50 (Cavia porcellus [1]): 4080 nM
- Intrinsic activity (Cavia porcellus [2]): 0.78

Compound: CC1(C)Oc2ccc(C#N)cc2[C@H]2n3cccc3[C@@H](C(F)(F)F)O[C@]21O
- IC50 (Cavia porcellus [1]): 80 nM
- Intrinsic activity (Cavia porcellus [2]): 0.96

Compound: CC(=O)N[C@@H]1c2cc(C#N)ccc2OC(C)(C)[C@H]1O
- IC50 (Cavia porcellus [1]): 2900 nM
- Intrinsic activity (Cavia porcellus [2]): 0.78

Compound: CC1(C)Oc2ccc(C#N)cc2C2=C1OC(c1ccccc1)c1cccn12 (stereo not drawn)
- IC50 (Cavia porcellus [1]): > 2000 nM
- Intrinsic activity (Cavia porcellus [2]): 0.21

Compound: CC1(C)Oc2ccc(C#N)cc2[C@@H](n2cccc2C(=O)C(F)(F)F)[C@@H]1O
- IC50 (Cavia porcellus [1]): > 20000 nM
- Intrinsic activity (Cavia porcellus [2]): 0.28

Compound: CC1(C)C=C(n2cccc2C(=O)C(F)(F)F)c2cc(C#N)ccc2O1
- IC50 (Cavia porcellus [1]): 690 nM
- Intrinsic activity (Cavia porcellus [2]): 0.91

Compound: CC1(C)C=C(n2cccc2[N+](=O)[O-])c2cc(C#N)ccc2O1
- IC50 (Cavia porcellus [1]): 690 nM
- Intrinsic activity (Cavia porcellus [2]): 0.88

Compound: CC1(C)Oc2ccc(C#N)cc2[C@@H](n2cccc2)[C@@H]1O
- IC50 (Cavia porcellus [1]): > 20000 nM
- Intrinsic activity (Cavia porcellus [2]): 0.19

Compound: C/C(=C\C#N)N[C@@H]1c2cc(C#N)ccc2OC(C)(C)[C@H]1O
- IC50 (Cavia porcellus [1]): 1230 nM
- Intrinsic activity (Cavia porcellus [2]): 0.96

Compound: CC1(C)Oc2ccc(C#N)cc2[C@H]2n3cccc3CO[C@]21O
- IC50 (Cavia porcellus [1]): 10400 nM
- Intrinsic activity (Cavia porcellus [2]): 0.85

Compound: CC1(C)Oc2ccc(C#N)cc2[C@@H](N2CCCC2=O)[C@@H]1O [CROMAKALIM]
- Intrinsic activity (Cavia porcellus [2]): 0.89
